Reference: PubChem BioAssay (NCI)
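In this assay, cells in 96-well plates receive the compound at five concentrations for 48 hours. Endpoints are linearly interpolated between the surrounding concentrations. TGI: total growth inhibition.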

Experiments:
Assay in all cases: NCI tumour cell line growth inhibition, 48 h
[1] = tested on: HOP-18 NSCLC
[2] = tested on: DMS 273 small cell lung
[3] = tested on: A549 NSCLC
[4] = tested on: KM12 colon
[5] = tested on: NCI-H460 lung
[6] = tested on: HCT-116 colon
[7] = tested on: M14 melanoma
[8] = tested on: HCT-15 colon
[9] = tested on: XF 498 CNS
[10] = tested on: TK-10 renal
[11] = tested on: SF-539 CNS
[12] = tested on: OVCAR-3 ovarian
[13] = tested on: A498 renal
[14] = tested on: SW-620 colon
[15] = tested on: UACC-257 melanoma
[16] = tested on: U251 CNS
[17] = tested on: HOP-92 NSCLC
[18] = tested on: HL-60(TB) leukemia
[19] = tested on: RXF 393 renal
[20] = tested on: SK-OV-3 ovarian
[21] = tested on: SK-MEL-2 melanoma
[22] = tested on: SK-MEL-28 melanoma
[23] = tested on: SK-MEL-5 melanoma
[24] = tested on: OVCAR-8 ovarian
[25] = tested on: K-562 leukemia
[26] = tested on: NCI-H522 lung
[27] = tested on: MOLT-4 leukemia
[28] = tested on: IGROV1 ovarian
[29] = tested on: LXFL 529 NSCLC
[30] = tested on: NCI-H23 lung
[31] = tested on: DMS 114 small cell lung
[32] = tested on: SF-295 CNS
[33] = tested on: KM20L2 colon
[34] = tested on: LOX IMVI melanoma
[35] = tested on: OVCAR-5 ovarian
[36] = tested on: SF-268 CNS
[37] = tested on: SNB-19 CNS
[38] = tested on: SN12C renal
[39] = tested on: CCRF-CEM leukemia
[40] = tested on: SR leukemia
[41] = tested on: UACC-62 melanoma
[42] = tested on: M19-MEL melanoma
[43] = tested on: SNB-78 CNS
[44] = tested on: DLD-1 colon
[45] = tested on: SNB-75 CNS
[46] = tested on: MALME-3M melanoma
[47] = tested on: ACHN renal
[48] = tested on: UO-31 renal
[49] = tested on: COLO 205 colon
[50] = tested on: EKVX NSCLC
[51] = tested on: HCC-2998 colon
[52] = tested on: HT29 colon
[53] = tested on: HOP-62 NSCLC
[54] = tested on: RPMI-8226 leukemia
[55] = tested on: NCI-H226 lung
[56] = tested on: 786-0 renal
[57] = tested on: OVCAR-4 ovarian
[58] = tested on: CAKI-1 renal
[59] = tested on: RXF-631 renal

Measured: TGI

CCCCCCCCCC/C=C/C=O
not listed: [53] | [54] | [55] | [56] | [57] | [58] | [59]
> 100 µM: all other assays above

C=C1c2[nH]c3ccccc3c2CC(C(=O)O)N1C(O)c1ccc(S(=O)(=O)O)cc1 (stereo not given)
not listed: [1] | [8] | [28] | [33] | [49] | [50]
> 100 µM: all other assays above
